For one experiment, the target named is T1, Human 11βHSD1 (Homo sapiens, UniProt P28845).
T1 construct: the enzyme source, native hepatic enzyme compared to recombinant enzyme; tissue XenoTech H0610/Lot 0210078; host or cells: human hepatic microsomes
Briefly: 11β HSD1 cortisol radioimmunoassay (RIA) with human hepatic microsomes. It counts as biochemical. As to conditions: RIA format; Lineweaver-Burke; Buffer 3, 10 μg/well microsomal protein, 30 min; read-out: apparent Km. How it is done:
Biological Assay Development Using Human 11β-Hydroxysteroid Dehydrogenase Type 1. Standard Operating Procedure for the 11β-Hydroxysteroid Dehydrogenase Type 1 Cortisol Radioimmunoassay. 11β HSD1 Cortisol RIA
Enzyme assay buffer: 30 mM Tris-HCL, pH 7.2 containing 1 mM EDTA
Antibody binding buffer: 50 mM Tris-HCL, pH 8, containing 0.1 M NaCl and 0.1% gelatin
Dilute into assay buffer 1 in 25. Also dilute neat DMSO 1 in 25 into assay buffer for controls.
Dilute this 1 in 50 into assay buffer.
Prepare NADPH as a 1.8 mg/ml solution in assay buffer.
Mix these 3 solutions 1:1:1 to make a solution of sufficient volume for 25 μl additions to each sample. Add 0.5 μCi tritiated cortisone per 25 μl and mix the solution well.
Microsome preparation: Dilute stock 20 mg/ml solution 1 in 100 with assay buffer.
Dextran coated charcoal preparation: Make a 20 mg/ml solution in antibody binding buffer and chill on ice.
Enzyme assay: To a u-bottom polypropylene 96 well plate add:
25 μl compound dilution or diluted DMSO to controls, NSB's and blanks
10 μl 1 mM GA in DMSO (enzyme stop solution) to blanks
25 μl substrate mixture to all samples
50 μl diluted microsomes to all samples
Incubate plate for 30 min at 37° C. shaking
Add 10 μl enzyme stop solution to all wells except the blanks
Add 100 μl antibody solution to all wells except the NSB's, add antibody binding buffer to these wells
Incubate at 37° C. for 1 h
Chill plate on ice for 15 min
Add 50 μl/well charcoal solution and mix with an 8-channel pipette (4-5 aspirations)
Centrifuge at 4° C., 2000×g for 15 min
Transfer 100 μl supernatant into an Optiplate, also add 25 μl substrate mixture to 2 empty wells to indicate counting efficiency
Add 200 μl Microscint-40 to all wells and count on a Topcount
The 11β HSD1 enzyme assay was carried out following the standard operating procedure described above in u-bottom polypropylene 96 well plates or 1.5 ml Eppendorf tubes as indicated for each experiment. Subsequent to stopping the enzyme reaction, 100 μl antibody prepared in buffer 3 unless otherwise indicated was added to test samples and 100 μl buffer 3 was added to the NSB samples. The samples were incubated for 1 hour at 37° C. and the chilled on ice for 15 mins. Dextran coated charcoal (50 μl/sample) prepared to the indicated concentration in buffer 3 was added and the samples were mixed (vortex for tubes and aspiration 5 times with an 8-channel pipette for 96 well plates) and chilled for a further 10 min. The samples were centrifuged at 2000×g for 15 min at 4° C. to pellet the charcoal. Aliquots of the supernatant (100 μl) were transferred to an Optiplate and counted on the Topcount in 150-200 μl Microscint 40. In some experiments, aliquots of supernatant were transferred to scintillation vials and counted on the Tricarb LSC in 5 ml Ultima Gold scintillant.
Substrate saturation was examined. The enzyme assay was carried out exactly described in the methods section, in Buffer 3 with 10 μg/well microsomal protein and with [cold cortisone] as indicated. [3H]-cortisone was 0.5 μCi/sample throughout. The reaction was stopped after 30 min by the addition of 10 μl stop solution. The RIA was carried out exactly as indicated in the methods section.
It is reported that DMSO can both increase and reduce microsomal enzyme activity, depending on the concentration, presumably due to effects on the microsomal membranes.

Experiment [1] concerns the target T2, human hepatic microsomal 11β-HSD1 (Homo sapiens, UniProt P28845).
T2 construct: the enzyme source, native hepatic enzyme compared to recombinant enzyme; tissue XenoTech H0610/Lot 0210078; host or cells: human hepatic microsomes
The experiment can be described thus: 11β HSD1 TLC format assay with human hepatic microsomes. The conditions noted are these: Lineweaver-Burke, 10 μg microsomal protein, 30 minutes at 37° C., read-out: apparent Km for cortisone. In kind it is biochemical.
Method: 11β-HSD1 activity in rat and human hepatic microsomes was evaluated, to determine the minimum microsomal protein concentrations required for measurement of enzyme activity. […] The assay was performed in Buffer 2 and the cortisone concentration used was 2 μM containing 0.5 μCi [^3H]-cortisone per incubation. Microsomes were tested at concentrations ranging from 50 μg to 400 μg protein per incubation in a final incubation volume of 100 μl in glass tubes. Samples were incubated for 1 h in a shaking water bath at 37° C. and the assay was stopped by addition of 1 ml ethyl acetate. To correct for recovery, 50 μl [^14C]-cortisol was added to the samples followed by 200 μl 0.05% CaCl2. The samples were vortex mixed and centrifuged as described above. The upper organic phase was removed and dried down, and the residue dissolved in 100 μl methanol and 50 μl aliquots were spotted onto TLC plates, which were run as described above. Samples were counted on a TriCarb liquid scintillation counter using a dual label programme. Recovery efficiency was determined from the DPM obtained in 50 μl [^14C]-cortisol solution, which was counted with the samples.
Lower human microsome protein concentrations were evaluated; 3.7 μg to 100 μg per sample. The time course of activity was also determined, from 0 to 60 minutes at 37° C. The extraction conditions were as described above. […]

T1 sequence (P28845 whole entry): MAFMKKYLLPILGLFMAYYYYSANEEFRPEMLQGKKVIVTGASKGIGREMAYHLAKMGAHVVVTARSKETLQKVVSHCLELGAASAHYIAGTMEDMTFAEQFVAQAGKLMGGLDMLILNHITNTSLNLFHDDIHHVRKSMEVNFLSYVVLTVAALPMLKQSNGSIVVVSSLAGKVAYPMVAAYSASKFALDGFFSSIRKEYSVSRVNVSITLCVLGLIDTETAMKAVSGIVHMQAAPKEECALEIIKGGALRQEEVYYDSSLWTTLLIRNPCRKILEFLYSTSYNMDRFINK
T2 sequence (P28845 whole entry): as above

One may read the Km as the substrate concentration at which the rate is half of its maximum. As for `C[C@]12CCC(=O)C=C1CC[C@@H]1[C@@H]2C(=O)C[C@@]2(C)[C@H]1CC[C@]2(O)C(=O)CO` [cortisone, reference compound], the Km turned out to be 0.7 µM on Human 11βHSD1 and 0.66 µM in experiment [1].

The record behind these values is patent US7786152B2, “Compound” (priority 2002, dated 2010).
